# Measurements reported in patent publication US4080381A, “Water soluble tertiary amine boranes” (Mine Safety Appliances Company, priority 1976, dated 1978).
# Tests used:
# [1] = water solubility of the amine boranes; assay type: physicochemical
# Procedure: Two Hundred milliliters of distilled dimethylsulfide (DMS) and 122.5 g (523.5 mmol) of CH3 O(C2 H4 O)3 C2 H4 N(CH3)2 were added to a one liter three necked flask equipped with a magnetic stirring bar, a thermometer and a 250 ml pressure equalizing dropping funnel. 41.4 grams (523.5 mmol) of dimethylsulfide borane (DMSB) was added to the funnel. The DMSB was added dropwise over the next hour while maintaining the reaction vessel temperature between 7°-15° C with ice water cooling. After the reaction was complete, the DMS solvent was removed under vacuum.
# (1) 62.0 g (530 mmol) of CH3 CH2 OC2 H4 N(CH3)2 and 41.7 g (530 mmol) of DMSB were reacted in the same manner as example 1.
# 33.7 g (229.2 mmol) of CH3 OC2 H4 OC2 H4 N(CH3)2 and 18.1 g (230 mmol) of DMSB were reacted in the same manner as example (1). The resulting liquid amine borane has an approximate water solubility of 200 g/l of solution.
# 113.2 g (1099 mmol) of CH3 OC2 H4 N(CH3)2 and 87.3 g (1099 mmol) DMSB were reacted in the same manner as example 1. […] Inert solvents, such as hydrocarbon or ether solvents, can be used partially or wholly in place of the DMS. Temperature, pressure and reaction proportions are not critical, although it is generally most convenient to use stoichimetric proportions at atmospheric pressure and room temperature or below.
# [2] = electroless gold plating: reduction of gold salt solution on palladium chloride activated nickel plate; details: mixed with KAuCl4 solution, pH 12.5
# Procedure: The amine boranes of this invention are useful as reducing agents in aqueous solutions. For example, solutions of gold salts are reduced by the water soluble amine boranes to plate gold on a catalytically active surface contacted with the solution, as is more fully described in the above referenced co pending application. To illustrate, the pH of one hundred ml of a 3.0 g/l solution of KAuCl4 was raised to 12.5 by the addition of NaOH. In a separate beaker, the pH of 100 ml of a 2.00g/l solution of CH3 OCH2 CH2 N(CH3)2 :BH3 was also raised to 12.5 by the addtion of NaOH. […] A palladium chloride activated substrate of nickel plate was immersed in the stirred bath for one hour at room temperature.
smiles,measurement,setting,value
[BH3-][N+](C)(C)CCOCCOCCOCCOC [Example 1],water solubility (in words),[1]; in water,very soluble in water
[BH3-][N+](C)(C)CCOCC [Example 2],solubility in water,[1]; in water at 25° C,17 mg/mL
[BH3-][N+](C)(C)CCOCCOC [Example 3],approximate water solubility,[1]; in water,~200 g/l of solution
[BH3-][N+](C)(C)CCOC [Example 4],appearance and stability of mixed plating solution,[2],clear and stable
same,limiting solubility in water,[1]; in water,38 g/l of solution
